Results taken from paper PMC7745420 (ACS Omega, 2020).

Biological target: p97/VCP (Homo sapiens, UniProt P55072)
Test: ATPase assay on purified human p97/VCP
Assay type: biochemical

Chain of p97/VCP (P55072 2-806): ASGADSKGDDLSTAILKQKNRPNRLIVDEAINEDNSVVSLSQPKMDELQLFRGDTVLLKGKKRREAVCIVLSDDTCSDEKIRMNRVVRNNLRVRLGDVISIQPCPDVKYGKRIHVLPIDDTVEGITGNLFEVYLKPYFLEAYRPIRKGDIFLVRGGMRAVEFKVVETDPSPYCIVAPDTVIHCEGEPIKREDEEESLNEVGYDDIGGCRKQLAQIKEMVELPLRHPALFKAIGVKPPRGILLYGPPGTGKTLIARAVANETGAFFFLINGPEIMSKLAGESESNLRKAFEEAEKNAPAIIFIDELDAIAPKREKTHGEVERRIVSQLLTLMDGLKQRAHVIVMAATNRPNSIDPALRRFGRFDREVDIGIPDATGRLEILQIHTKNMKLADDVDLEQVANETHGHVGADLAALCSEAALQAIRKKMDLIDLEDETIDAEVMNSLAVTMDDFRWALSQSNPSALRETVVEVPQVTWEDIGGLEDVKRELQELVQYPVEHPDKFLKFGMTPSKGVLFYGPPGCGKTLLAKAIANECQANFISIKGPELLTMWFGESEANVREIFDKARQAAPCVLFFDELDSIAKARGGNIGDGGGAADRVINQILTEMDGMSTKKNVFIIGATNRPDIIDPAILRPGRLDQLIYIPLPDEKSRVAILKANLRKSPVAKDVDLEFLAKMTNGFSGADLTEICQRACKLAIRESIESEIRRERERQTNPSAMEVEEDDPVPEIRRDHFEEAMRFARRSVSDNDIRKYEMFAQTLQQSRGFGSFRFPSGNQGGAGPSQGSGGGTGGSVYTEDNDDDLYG

IC50: 900 ± 110 nM
SMILES: NCCc1cn(-c2nc(NCc3ccccc3)c3ccccc3n2)c2ccccc12 [FQ393, 2-[3-(2-Aminoethyl)-1H-indol-1-yl]-N-benzylquinazolin-4-amine]
